Assay results from patent US8445480B2, “CETP inhibitors derived from benzoxazole arylamides” (Merck Sharp & Dohme Corp., priority 2007, dated 2013).

Target: T1, recombinant human CETP (Homo sapiens, UniProt P11597)
T1 construct: made in house; host or cells: CHO cells
T1 sequence (P11597 18-493): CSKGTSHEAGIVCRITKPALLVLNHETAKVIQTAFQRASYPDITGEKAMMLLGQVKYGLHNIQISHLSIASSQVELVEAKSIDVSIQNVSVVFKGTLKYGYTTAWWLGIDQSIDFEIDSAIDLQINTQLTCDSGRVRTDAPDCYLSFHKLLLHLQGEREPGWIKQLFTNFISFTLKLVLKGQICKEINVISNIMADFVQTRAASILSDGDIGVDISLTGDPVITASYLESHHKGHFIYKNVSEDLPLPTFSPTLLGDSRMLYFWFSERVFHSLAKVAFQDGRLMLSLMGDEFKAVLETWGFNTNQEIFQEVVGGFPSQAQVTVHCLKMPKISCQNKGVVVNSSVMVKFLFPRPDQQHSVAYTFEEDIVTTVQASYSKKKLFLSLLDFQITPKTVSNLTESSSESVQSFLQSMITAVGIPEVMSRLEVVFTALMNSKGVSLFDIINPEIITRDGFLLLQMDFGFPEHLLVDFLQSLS
Experiment: CETP assay, in vitro continuous fluorescence assay of CE transfer (BODIPY-CE donor particles)
Format: biochemical
Settings: CE transfer reaction, 3% human serum, 25° C.; read-out: IC50 value as measured for the CE transfer reaction
Description: An in vitro continuous assay for determining IC50's to identify compounds that are CETP inhibitors was performed based on a modification of the method described by Epps et al. employing BODIPY®-CE as the cholesteryl ester lipid donor and BODIPY®-TG as the triglyceride lipid donor. See Epps et al. (1995) Method for measuring the activities of cholesteryl ester transfer protein (lipid transfer protein), Chem. Phys. Lipids. 77, 51-63.
Particles used in the assay were created from the following materials by probe sonication essentially as described by Epps et al. Synthetic cholesteryl ester (CE) donor HDL particles contained DOPC (Dioleoyl Phosphatidyl Choline), BODIPY®-CE (Molecular Probes C-3927), triolein (a triglyceride), dabcyl dicetylamide, (a non-diffusible quencher molecule to reduce background fluorescence) and apoHDL. Synthetic triglyceride (TG) donor HDL particles contained DOPC, BODIPY®-TG, and apoHDL. […] Particle concentrations were expressed in terms of protein concentration as determined by BCA assay (Pierce, USA). […]
Assays were performed in Dynex Microfluor 2 U-bottom black 96-well plates (Cat #7205). […] CE transfer reactions were performed as follows: final concentrations of materials were: 2.5 ng/μCE donor particles, 7.5 ng/μL acceptor particles (each expressed by protein content), 1×CETP buffer, 14-30 nM recombinant human CETP (expressed in CHO cells and partially purified), and up to 2% DMSO when testing compounds; reactions were followed in a fluorescence plate reader (Molecular Devices Spectramax GeminiXS) set for a 45 minute kinetic run at 25° C. which read the samples every 45 sec at Ex=480 nm, Em=511 nm, with a cutoff filter at 495 nm, photomultiplier tube setting of medium, calibration on, and 6 reads/well. […] TG transfer was measured at an excitation wavelength of 538 nm while reading emission at 568 nm every 45 sec for 45 min at 37° C. with a cutoff filter at 550 nm.
Data were evaluated by obtaining an initial rate, expressed in relative fluorescence units per second, for the pseudolinear portion of the curve, often 0-500 or 1000 sec. […]

| IC50 [nM] | Compound |
| --- | --- |
| 13 to 60 | CC(C)c1cc(C#N)cc2nc(-c3ccc(C(=O)NCC4CCN(c5nccc(C(F)(F)F)n5)CC4)cc3)oc12 [Example 1, 4-(5-Cyano-7-isopropyl-1,3-benzoxazol-2-yl)-N-({1-[4-(trifluoromethyl)pyrimidin-2-yl]piperidin-4-yl}methyl)benzamide] |
| 13 to 60 | CC(C)c1cc(C#N)cc2nc(-c3ccc(C(=O)NCC4CCN(c5ccc(C(F)(F)F)cn5)CC4)cc3)oc12 [Example 3] |
| 13 to 60 | CC(C)c1cc(C#N)cc2nc(-c3ccc(C(=O)NCC4CCN(Cc5cccc(C(F)(F)F)c5)CC4)cc3)oc12 [Example 58] |
